Assay results taken from ChEMBL document CHEMBL4507291 (2021).

Experiments:
[1] = target: Cyclin-dependent kinase 7 (Homo sapiens) (UniProt P50613)
[2] = target: Mitogen-activated protein kinase 6 (Homo sapiens) (UniProt Q16659)
[3] = tested on: Receptor-type tyrosine-protein kinase FLT3 (Homo sapiens), P36888 [R834Q]
[4] = target: Tyrosine-protein kinase FRK (Homo sapiens) (UniProt P42685)
[5] = target: G protein-coupled receptor kinase 4 (Homo sapiens) (UniProt P32298)
[6] = target: Homeodomain-interacting protein kinase 2 (Homo sapiens) (UniProt Q9H2X6)
Homeodomain-interacting protein kinase 2 (Homo sapiens), sequence (Q9H2X6 whole entry, looked up): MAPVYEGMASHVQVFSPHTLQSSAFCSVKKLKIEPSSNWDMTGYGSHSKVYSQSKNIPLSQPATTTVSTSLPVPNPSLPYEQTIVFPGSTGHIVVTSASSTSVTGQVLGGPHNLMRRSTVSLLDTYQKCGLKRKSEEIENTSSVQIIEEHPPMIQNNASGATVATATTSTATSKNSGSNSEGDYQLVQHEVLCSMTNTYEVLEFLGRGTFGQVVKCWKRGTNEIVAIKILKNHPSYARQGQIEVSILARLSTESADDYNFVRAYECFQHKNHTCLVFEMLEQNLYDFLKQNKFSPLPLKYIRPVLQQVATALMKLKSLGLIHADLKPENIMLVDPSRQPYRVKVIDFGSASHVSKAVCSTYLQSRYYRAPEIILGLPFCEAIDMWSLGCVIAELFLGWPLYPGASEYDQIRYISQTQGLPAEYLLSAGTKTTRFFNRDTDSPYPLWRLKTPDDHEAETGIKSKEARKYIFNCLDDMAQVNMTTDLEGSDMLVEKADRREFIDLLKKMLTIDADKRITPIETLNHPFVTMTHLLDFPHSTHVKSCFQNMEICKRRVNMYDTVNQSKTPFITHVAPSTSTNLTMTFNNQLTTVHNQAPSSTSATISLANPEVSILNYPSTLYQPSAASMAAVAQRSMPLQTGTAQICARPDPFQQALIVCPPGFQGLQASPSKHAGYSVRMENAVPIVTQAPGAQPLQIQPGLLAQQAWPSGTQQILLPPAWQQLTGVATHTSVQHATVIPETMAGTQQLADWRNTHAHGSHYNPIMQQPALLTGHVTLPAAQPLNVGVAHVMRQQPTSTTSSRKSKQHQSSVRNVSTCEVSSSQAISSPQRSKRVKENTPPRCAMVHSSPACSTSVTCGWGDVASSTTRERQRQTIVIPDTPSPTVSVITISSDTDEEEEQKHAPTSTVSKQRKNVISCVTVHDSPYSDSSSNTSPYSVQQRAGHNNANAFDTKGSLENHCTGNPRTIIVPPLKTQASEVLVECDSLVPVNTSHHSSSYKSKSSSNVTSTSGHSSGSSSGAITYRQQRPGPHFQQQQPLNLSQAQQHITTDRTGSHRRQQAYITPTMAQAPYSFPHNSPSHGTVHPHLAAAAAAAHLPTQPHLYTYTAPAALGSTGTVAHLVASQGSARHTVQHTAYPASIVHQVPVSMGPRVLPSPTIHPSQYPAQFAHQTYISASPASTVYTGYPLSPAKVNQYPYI

[7] = tested on: Mast/stem cell growth factor receptor Kit (Homo sapiens), P10721 [V559D,T670I]
[8] = target: Mitogen-activated protein kinase kinase kinase 15 (Homo sapiens) (UniProt Q6ZN16)
Mitogen-activated protein kinase kinase kinase 15 (Homo sapiens), sequence (Q6ZN16 whole entry): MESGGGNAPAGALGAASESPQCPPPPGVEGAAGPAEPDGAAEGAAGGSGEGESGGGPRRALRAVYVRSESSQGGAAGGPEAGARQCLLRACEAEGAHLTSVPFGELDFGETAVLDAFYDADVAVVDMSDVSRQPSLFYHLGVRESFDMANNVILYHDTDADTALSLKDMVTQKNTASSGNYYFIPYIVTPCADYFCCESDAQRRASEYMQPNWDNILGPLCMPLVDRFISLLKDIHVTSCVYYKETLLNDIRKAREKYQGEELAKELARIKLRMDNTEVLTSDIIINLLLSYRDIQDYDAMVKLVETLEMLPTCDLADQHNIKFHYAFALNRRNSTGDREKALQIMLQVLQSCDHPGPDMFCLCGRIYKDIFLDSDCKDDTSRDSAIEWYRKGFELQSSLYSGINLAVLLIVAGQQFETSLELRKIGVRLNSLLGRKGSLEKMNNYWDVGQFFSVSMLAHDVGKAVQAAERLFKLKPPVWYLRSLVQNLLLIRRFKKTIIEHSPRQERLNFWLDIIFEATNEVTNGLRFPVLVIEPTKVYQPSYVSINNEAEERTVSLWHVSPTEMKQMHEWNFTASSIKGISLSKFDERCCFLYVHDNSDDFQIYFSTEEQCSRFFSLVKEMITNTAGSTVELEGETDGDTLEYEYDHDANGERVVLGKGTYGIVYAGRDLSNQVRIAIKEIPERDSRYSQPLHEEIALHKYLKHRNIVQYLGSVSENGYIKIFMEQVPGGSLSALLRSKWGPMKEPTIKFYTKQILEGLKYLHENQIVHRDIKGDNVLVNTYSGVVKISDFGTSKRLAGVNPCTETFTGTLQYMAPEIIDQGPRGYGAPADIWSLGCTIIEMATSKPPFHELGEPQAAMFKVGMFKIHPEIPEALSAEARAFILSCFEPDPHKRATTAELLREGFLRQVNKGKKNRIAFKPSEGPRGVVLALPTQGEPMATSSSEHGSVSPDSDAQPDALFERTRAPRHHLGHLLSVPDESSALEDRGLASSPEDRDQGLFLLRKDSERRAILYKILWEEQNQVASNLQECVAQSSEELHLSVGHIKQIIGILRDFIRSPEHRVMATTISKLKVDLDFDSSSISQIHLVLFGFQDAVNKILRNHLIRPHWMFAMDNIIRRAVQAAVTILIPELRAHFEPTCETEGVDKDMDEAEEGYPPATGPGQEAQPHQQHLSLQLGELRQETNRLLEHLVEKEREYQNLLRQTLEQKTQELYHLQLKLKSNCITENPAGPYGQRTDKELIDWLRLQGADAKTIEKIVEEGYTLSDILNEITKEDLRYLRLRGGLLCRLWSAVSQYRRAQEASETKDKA

[9] = target: Ribosomal protein S6 kinase alpha-1 (Homo sapiens) (UniProt Q15418)
[10] = target: Ribosomal protein S6 kinase alpha-6 (Homo sapiens) (UniProt Q9UK32)
Ribosomal protein S6 kinase alpha-6 (Homo sapiens), sequence (Q9UK32 whole entry): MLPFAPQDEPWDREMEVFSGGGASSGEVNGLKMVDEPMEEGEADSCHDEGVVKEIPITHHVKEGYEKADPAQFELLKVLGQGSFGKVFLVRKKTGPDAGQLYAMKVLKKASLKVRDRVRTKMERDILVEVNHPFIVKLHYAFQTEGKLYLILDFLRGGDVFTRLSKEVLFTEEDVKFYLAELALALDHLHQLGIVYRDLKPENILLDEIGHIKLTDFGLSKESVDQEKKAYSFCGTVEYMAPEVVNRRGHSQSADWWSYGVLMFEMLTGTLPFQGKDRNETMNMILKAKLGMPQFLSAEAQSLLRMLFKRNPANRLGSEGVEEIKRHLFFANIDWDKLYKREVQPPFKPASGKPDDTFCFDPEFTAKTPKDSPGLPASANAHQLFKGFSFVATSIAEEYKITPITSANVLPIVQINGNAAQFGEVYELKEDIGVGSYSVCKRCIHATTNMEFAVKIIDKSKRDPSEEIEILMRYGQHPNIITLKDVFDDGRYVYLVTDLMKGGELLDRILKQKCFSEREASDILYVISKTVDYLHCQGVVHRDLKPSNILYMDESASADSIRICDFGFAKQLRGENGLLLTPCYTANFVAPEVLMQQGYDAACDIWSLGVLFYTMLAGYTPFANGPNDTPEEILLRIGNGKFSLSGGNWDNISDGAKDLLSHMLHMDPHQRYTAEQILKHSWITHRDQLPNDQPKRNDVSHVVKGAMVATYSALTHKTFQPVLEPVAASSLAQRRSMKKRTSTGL

[11] = target: Ribosomal protein S6 kinase beta-1 (Homo sapiens) (UniProt P23443)
[12] = target: T1, Serine/threonine-protein kinase TAO2 (Homo sapiens) (UniProt Q9UL54)
T1 sequence (whole entry): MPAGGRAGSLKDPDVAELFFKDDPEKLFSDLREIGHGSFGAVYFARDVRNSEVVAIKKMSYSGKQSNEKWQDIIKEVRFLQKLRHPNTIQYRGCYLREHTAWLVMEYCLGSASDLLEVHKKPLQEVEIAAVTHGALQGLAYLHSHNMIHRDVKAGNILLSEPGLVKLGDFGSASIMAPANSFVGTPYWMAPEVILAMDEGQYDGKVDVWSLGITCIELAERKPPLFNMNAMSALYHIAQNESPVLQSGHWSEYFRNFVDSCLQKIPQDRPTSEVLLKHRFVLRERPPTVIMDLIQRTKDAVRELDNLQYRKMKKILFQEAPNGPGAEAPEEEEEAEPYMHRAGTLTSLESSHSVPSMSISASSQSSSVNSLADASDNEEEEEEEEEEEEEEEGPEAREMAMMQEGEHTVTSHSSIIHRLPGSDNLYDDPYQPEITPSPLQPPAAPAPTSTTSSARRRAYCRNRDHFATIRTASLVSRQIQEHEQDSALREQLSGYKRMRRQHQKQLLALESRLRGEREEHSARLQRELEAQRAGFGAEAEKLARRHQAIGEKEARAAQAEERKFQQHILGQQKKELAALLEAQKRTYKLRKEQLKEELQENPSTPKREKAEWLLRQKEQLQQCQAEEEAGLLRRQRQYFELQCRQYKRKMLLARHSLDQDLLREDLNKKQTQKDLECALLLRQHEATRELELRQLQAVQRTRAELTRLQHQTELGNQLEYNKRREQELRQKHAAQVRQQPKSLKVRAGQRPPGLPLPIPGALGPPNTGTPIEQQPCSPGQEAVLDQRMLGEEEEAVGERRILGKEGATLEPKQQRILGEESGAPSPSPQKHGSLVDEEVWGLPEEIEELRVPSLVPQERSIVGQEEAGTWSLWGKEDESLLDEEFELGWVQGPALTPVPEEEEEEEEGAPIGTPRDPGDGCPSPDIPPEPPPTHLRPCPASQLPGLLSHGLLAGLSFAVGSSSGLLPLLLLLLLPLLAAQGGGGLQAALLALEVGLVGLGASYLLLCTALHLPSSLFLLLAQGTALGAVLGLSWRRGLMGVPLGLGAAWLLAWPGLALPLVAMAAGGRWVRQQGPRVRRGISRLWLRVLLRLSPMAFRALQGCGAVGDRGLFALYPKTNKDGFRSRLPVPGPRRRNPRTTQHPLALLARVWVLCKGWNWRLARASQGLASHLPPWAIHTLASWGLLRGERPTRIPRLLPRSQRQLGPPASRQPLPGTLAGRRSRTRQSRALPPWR

[13] = target: Non-receptor tyrosine-protein kinase TYK2 (Homo sapiens) (UniProt P29597)
[14] = target: Serine/threonine-protein kinase ULK3 (Homo sapiens) (UniProt Q6PHR2)
Serine/threonine-protein kinase ULK3 (Homo sapiens), sequence (Q6PHR2 whole entry): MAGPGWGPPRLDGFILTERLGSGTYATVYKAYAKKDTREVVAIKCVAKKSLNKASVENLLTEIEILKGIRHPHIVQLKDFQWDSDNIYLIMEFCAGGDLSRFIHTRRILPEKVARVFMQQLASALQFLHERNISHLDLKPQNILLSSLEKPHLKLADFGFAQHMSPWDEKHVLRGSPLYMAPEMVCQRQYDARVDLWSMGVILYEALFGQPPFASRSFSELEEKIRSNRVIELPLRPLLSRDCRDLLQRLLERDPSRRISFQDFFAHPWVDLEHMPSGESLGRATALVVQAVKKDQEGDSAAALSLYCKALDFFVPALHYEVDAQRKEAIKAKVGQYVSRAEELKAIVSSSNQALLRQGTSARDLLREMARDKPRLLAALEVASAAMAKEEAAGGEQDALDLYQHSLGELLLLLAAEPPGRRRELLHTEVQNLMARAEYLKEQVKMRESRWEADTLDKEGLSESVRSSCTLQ

[15] = target: T2, Alpha-2B adrenergic receptor (Homo sapiens) (UniProt P18089); conditions: Compound concentration 10.0 uM
T2 sequence (whole entry): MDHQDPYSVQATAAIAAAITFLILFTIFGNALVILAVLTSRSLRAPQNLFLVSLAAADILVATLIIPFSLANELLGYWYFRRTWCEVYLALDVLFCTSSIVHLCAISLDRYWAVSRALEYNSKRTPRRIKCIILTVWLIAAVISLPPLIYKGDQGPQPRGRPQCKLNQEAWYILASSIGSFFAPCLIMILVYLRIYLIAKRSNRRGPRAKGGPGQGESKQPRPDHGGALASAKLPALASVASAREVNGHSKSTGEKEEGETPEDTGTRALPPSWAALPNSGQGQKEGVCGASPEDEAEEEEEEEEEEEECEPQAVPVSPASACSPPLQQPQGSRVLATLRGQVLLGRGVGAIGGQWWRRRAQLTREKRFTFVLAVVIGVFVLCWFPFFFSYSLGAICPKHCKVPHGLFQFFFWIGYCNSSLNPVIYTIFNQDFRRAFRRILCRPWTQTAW

[16] = target: T3, Muscarinic acetylcholine receptor M1 (Homo sapiens) (UniProt P11229); conditions: Compound concentration 10.0 uM
T3 sequence (whole entry): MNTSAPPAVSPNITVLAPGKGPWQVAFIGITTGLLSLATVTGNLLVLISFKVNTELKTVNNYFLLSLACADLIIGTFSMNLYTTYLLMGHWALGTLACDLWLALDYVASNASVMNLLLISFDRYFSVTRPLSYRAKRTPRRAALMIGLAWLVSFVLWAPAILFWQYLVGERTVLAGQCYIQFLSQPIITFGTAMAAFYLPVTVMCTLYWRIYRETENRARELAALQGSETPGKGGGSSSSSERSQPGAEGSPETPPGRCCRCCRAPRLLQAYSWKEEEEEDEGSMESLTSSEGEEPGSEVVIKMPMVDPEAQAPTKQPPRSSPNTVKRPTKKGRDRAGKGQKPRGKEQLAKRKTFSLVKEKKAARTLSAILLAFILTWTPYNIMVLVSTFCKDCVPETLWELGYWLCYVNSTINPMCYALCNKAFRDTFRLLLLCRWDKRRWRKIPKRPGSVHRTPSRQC

[17] = Compound concentration 100.0 nM
[18] = Compound concentration 1000.0 nM

Mitogen-activated protein kinase 6 (Homo sapiens), sequence (Q16659 whole entry): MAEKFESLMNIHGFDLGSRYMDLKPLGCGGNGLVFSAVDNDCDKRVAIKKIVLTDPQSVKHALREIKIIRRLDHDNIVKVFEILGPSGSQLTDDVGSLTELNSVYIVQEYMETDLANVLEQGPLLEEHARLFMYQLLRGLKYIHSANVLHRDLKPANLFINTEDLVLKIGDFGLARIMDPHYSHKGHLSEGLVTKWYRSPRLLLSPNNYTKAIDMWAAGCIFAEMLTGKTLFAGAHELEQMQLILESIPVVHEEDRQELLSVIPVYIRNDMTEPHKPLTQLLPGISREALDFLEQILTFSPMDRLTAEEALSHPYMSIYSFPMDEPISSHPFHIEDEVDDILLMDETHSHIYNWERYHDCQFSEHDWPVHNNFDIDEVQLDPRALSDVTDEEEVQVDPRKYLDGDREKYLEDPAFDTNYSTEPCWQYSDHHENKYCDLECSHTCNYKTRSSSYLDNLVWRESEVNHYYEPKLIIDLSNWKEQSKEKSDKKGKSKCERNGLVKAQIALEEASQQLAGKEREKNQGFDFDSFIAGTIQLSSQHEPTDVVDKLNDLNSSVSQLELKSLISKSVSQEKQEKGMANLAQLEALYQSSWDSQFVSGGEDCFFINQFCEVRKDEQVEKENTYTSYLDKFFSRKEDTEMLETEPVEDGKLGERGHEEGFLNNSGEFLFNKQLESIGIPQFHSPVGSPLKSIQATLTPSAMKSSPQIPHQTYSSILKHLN
Tyrosine-protein kinase FRK (Homo sapiens), sequence (P42685 whole entry): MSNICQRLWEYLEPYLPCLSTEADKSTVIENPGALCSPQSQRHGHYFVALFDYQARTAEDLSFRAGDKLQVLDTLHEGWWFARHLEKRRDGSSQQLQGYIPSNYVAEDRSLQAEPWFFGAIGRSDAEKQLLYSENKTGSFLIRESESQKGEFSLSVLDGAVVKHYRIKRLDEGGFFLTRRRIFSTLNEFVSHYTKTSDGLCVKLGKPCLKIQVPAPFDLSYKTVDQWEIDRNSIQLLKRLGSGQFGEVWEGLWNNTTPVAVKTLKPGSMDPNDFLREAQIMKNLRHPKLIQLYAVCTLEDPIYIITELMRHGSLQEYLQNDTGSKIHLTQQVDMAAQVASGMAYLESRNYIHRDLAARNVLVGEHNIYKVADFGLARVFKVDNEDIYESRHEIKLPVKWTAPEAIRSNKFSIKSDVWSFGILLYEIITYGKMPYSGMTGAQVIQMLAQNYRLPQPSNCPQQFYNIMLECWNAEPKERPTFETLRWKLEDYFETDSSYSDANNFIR

C[C@@H]1CN(c2cc(-c3n[nH]c4ccc(OC5(C)CC5)cc34)ncn2)C[C@H](C)O1 [MLi-2]
inactive: residual activity [1, 17] 56% | residual activity [2, 17] 91% | residual activity [3, 17] 78% | residual activity [4, 17] 100% | residual activity [5, 17] 100% | residual activity [6, 17] 80% | residual activity [7, 17] 95% | residual activity [8, 17] 67% | residual activity [9, 17] 97% | residual activity [10, 17] 85% | residual activity [11, 17] 73% | residual activity [12, 17] 73% | residual activity [13, 17] 81% | residual activity [14, 17] 78% | inhibition [15] 6.1% | inhibition [16] 3.04%

C[C@@H]1CN(c2cc(-c3nn(C)c4ccc(OC5(C)CC5)cc34)ncn2)C[C@H](C)O1 [MLi-2-NC]
inactive: residual activity [1, 18] 100% | residual activity [2, 18] 97% | residual activity [3, 18] 90% | residual activity [4, 18] 100% | residual activity [5, 18] 96% | residual activity [6, 18] 74% | residual activity [7, 18] 100% | residual activity [8, 18] 80% | residual activity [9, 18] 100% | residual activity [10, 18] 79% | residual activity [11, 18] 100% | residual activity [12, 18] 80% | residual activity [13, 18] 51% | residual activity [14, 18] 67% | inhibition [15] 27.2% | inhibition [16] -1.02%
